Test results reported in patent US20060154243A1 (priority 2003, published 2006).

Key:
Format in all cases: binding, human
[1] = tested on: serum 1a (individual 1, early serum)
[2] = tested on: serum 1b (individual 1, late serum)
serum 2 (individual 2) = tested on: serum 2 (individual 2)
serum 6 (individual 6) = tested on: serum 6 (individual 6)
serum 37 (individual 37) = tested on: serum 37 (individual 37)
serum 62 (individual 62) = tested on: serum 62 (individual 62)
serum London = tested on: serum London
serum SARS-yellow = tested on: serum SARS-yellow
serum SARS-green = tested on: serum SARS-green
[3] = tested on: control serum LUMC (pooled serum of ten healthy hospital workers)
[4] = tested on: control serum Blood-bank (commercial negative donor pooled serum)

Row | Sequence | Binding of serum 1a to linear peptides of Orf14 of SARS-CoV TOR2 [1] | Binding of serum 1b to linear peptides of Orf14 of SARS-CoV TOR2 [2] | Binding of serum 2 to linear peptides of Orf14 of SARS-CoV TOR2 (serum 2 (individual 2)) | Binding of serum 6 to linear peptides of Orf14 of SARS-CoV TOR2 (serum 6 (individual 6)) | Binding of serum 37 to linear peptides of Orf14 of SARS-CoV TOR2 (serum 37 (individual 37)) | Binding of serum 62 to linear peptides of Orf14 of SARS-CoV TOR2 (serum 62 (individual 62)) | Binding of serum London to linear peptides of Orf14 of SARS-CoV TOR2 (serum London) | Binding of serum SARS-yellow to linear peptides of Orf14 of SARS-CoV TOR2 (serum SARS-yellow) | Binding of serum SARS-green to linear peptides of Orf14 of SARS-CoV TOR2 (serum SARS-green) | Control serum LUMC linear peptides [3] | Control serum LUMC looped peptides [3] | Control Serum Blood-Bank Looped peptides [4] | Control serum Blood-bank linear peptides [4]
1 | LAPHHVVAVIQEIQL | 0.5 | 0.4 | 0.4 | 0.4 | 0.5 | 0.4 | 0.4 | 0.4 | 0.1 | 0.6 | 0.5 | 0.5 | 0.3
2 | LEWLAEVVKLPSRYC | 0.6 | 0.3 | 0.4 | 0.4 | 0.7 | 0.4 | 0.5 | 0.2 | 0.1 | 0.4 | 0.7 | 0.8 | 0.4
3 | LLAAVGEILLLEWLA | 0.5 | 0.4 | 0.4 | 0.4 | 0.6 | 0.4 | 0.4 | 0.4 | 0.1 | 0.6 | 0.6 | 0.6 | 0.5
4 | LLAPHHVVAVIQEIQ | 0.5 | 0.5 | 0.5 | 0.5 | 0.6 | 0.5 | 0.5 | 0.5 | 0.3 | 0.6 | 0.8 | 0.8 | 0.4
5 | LLEWLAEVVKLPSRY | 0.5 | 0.4 | 0.3 | 0.5 | 0.5 | 0.4 | 0.4 | 0.3 | 0.1 | 0.4 | 0.6 | 0.6 | 0.5
6 | LLLEWLAEVVKLPSR | 0.5 | 0.4 | 0.4 | 0.6 | 0.7 | 0.4 | 0.6 | 0.2 | 0.3 | 0.5 | 0.5 | 0.7 | 0.7
7 | MLPPCYNFLKEQHCQ | 0.4 | 0.4 | 0.3 | 0.5 | 0.5 | 0.3 | 0.4 | 0.2 | 0.2 | 0.5 | 0.6 | 0.7 | 0.4
